Patent publication US7960168B2, “Biologically active substance transfer sheet, cell culture kit constituted of cell culture plate and biologically active substance transfer sheet, producing method thereof and method for screening cell culture conditions utilizing the same” (Canon Kabushiki Kaisha, priority 2003, dated 2011)

Key:
Format in all cases: cell-based
nerve cell strain PC12 = test: PC12 culture with immobilized EGF and dissolved EGF/NGF, hematoxilin-eosin staining (Example 6); settings: PC12, 48 hours
Procedure: An epidermal cell growth factor (EGF) and a nerve cell growth factor (NGF) were employed as the biologically active substances. A culture plate of polystyrene 96-well cell culture plate was prepared by a process similar to that in Example 5, providing areas (wells) where EGF was immobilized with stepwise concentrations, and control areas (wells) of no immobilization. Separately, a stretchable polyolefin sheet was coated with hydroxypropyl cellulose by using a bar coater and heated for 10 minutes at 60° C. to form a holding layer. Then EGF and NGF were provided on the sheet by using a Canon ink jet printer PIXUS950i to obtain a transfer sheet on which areas carrying EGF and NGF singly or in combination. Screening was conducted with these cell culture plate and transfer sheet.
The transfer sheet was placed on the cell culture plate sterilized in advance with a sterilizing lamp and filled with a culture liquid, then the areas carrying biological substance(s) of the sheet were brought into contact with the culture liquid in the wells by pushing the opposite surface of the sheet with a pointed article, and the contact was maintained for 15 minutes under light shaking to dissolve the biologically active substance in the culture liquid. […]

[1] = system: mouse skeletal muscle cell strain C2C12; test: C2C12 culture on plate with immobilized b-FGF and IGF-I and BMP-2 transfer sheet, optical microscope (Example 5); settings: C2C12, 96 hours
Procedure: The following method was employed for acting biologically active substances in combination on cells. As the biologically active substances, there were employed basic fibroblast cell growth factor (b-FGF), insulin-like growth factor (IGF-I) and bone morphogenetic protein (BMP-2).
First, bFGF and IGF-I were immobilized onto a polystyrene 96-well cell culture plate in the following manner.
On the cell culture plate coated with poly-L-lysine, a solution (1.5 mg/ml) of active dextran activated with tresyl chloride was added to bind the activated dextran to the plate. Then carbonate buffer solutions containing b-FGF and IGF-I respectively were prepared, applied to the microplate with various amounts. The microplate was left to stand for 12 hours at 4° C. to prepare a cell culture plate including areas where b-FGF and IGF-I were immobilized either singly or in combination with different concentrations, as well as control areas without immobilization.
A polystyrene sheet having projections corresponding the wells of the microplate was provided and sterilized. […]
Then the cells were treated with 10% formalin for 15 minutes and then with methanol for 15 minutes, and reacted with a fluorescent dye for 30 minutes for fluorescent staining of DNA. […] Thus the complex effects of three factors, namely immobilized bFGF, soluble IGF-I and BMP-2, to the cells were analyzed.

[2] = system: mouse skeletal muscle cell strain C2C12; test: C2C12 culture with sequential transfer sheets A and B, CK and ALP activities (Example 2); settings: C2C12, areas containing IGF-I only
Description: As the biologically active substances, fibroblast cell growth factor-2 (FGF-2), insulin-like growth factor-I (IGF-I), bone morphogenetic protein-2 (BMP-2) and transforming growth factor-β (TGF-β) were employed.
A DMEM culture liquid containing 2% FBS was put into wells of two 96-well transparent microplates 1 and 2. […] In this manner, the sheet A was used to provide FGF-2 and IGF-I to the microplate 1, and the sheet B was used to provide BMP-2 and TGF-β to the microplate 2. Then, in each well of each microplate, cells of mouse skeletal muscle cell strain C2C12 were cultured for 48 hours in humidified air supplied with 5% CO2. 48 hours after the start of the culture, the culture liquid was removed from each cell by suction. After fresh 2% FBS/DMEM was added to each well, a transfer sheet B was applied to the microplate 1 to supply BMP-2 and TGF-β, while a transfer sheet B was applied to the microplate 2 to supply FGF-2 and IGF-I, and the cell culture was conducted for further 48 hours.

[3] = system: mouse skeletal muscle cell strain C2C12; test: C2C12 culture with transfer sheet carrying b-FGF, IGF-I and BMP-2, microscope observation (Example 1); settings: C2C12, 96 hours culture
Procedure: Basic fibroblast cell growth factor (b-FGF), insulin-like growth factor (IGF-I) and bone morphogenetic protein (BMP-2) were used as the biologically active substance. b-FGF was dissolved in a physiological saline solution, IGF-I in 10 mM acetic acid, and BMP-2 in 4 mM hydrochloric acid to prepare solutions each containing the biologically active substance at a concentration of 20 μg/ml and 5% glycerin. Ink cartridges were washed with 70% ethanol, to which the respective solutions prepared above were filled.
Then, on a base of a polyolefin sheet (NOVIX-II® manufactured by Asahi Techno Glass), sterilized in advance with a sterilizing lamp, the biologically active substances were discharged by using an ink jet printer (Ink jet printer F930, Canon). […]
The cells after the culture were treated with 10% formalin for 15 minutes and then with methanol for 15 minutes, and finally with a 1000-fold dilution of fluorescent dye (TOTO-3 manufactured by Molecular Probe) for 30 minutes for fluorescent staining of DNA. […] Also the cells were subjected to freeze-fracture and the creatinkinase (KP) and alkaliphosphatase (ALP) activities were measured.

[4] = system: mouse skeletal muscle cell strain C2C12; test: C2C12 culture with BMP-2, sustained-release IGF-I and timed FGF-2 addition, ALP staining (Example 3)
Procedure: On the other hand, the 20 μg/ml solution of the insulin-like growth factor (IGF-I) contained 5% glycerin and 3% styrene-acrylic resin monoethanolamine salt (average molecular weight 8,000, acid value 250) for controlled release of IGF. Ink cartridges were washed with 70% ethanol, and were filled with the respective solutions of the biologically active substances.
Each polyolefin sheet was processed in advance to have minute holes at positions corresponding to the wells of a 96 well plate to allow gas exchange. A DMEM culture liquid containing FBS by 2% was put in wells of five 96-well transparent microplates. […] Then, in each well, cells of a mouse skeletal muscle cell strain C2C12 were added. Next, a transfer sheet carrying IGF-I was superimposed on each of the microplate and pressed from the above using the above jig so that each region of the sheet came in contact with the culture liquid in each well to gradually release IGF-I into the culture liquid, and cell culture was started. The above operations were carried out in the same manner with the five microplates. After a predetermined time from the start of the culture, the transfer sheet of one of the microplates was replaced by a transfer sheet carrying FGF-2 to dissolve FGF-2 into the culture liquid. After that the transfer sheet was replaced by the previous IGF-I sheet and the culture was continued. All the cells were cultured for 114 hours in total at 37° C., in humidified air containing 5% CO2. The FGF-2 addition was conducted at the following points:
(1) immediately after the start of culture;
(2) 12 hours after the start of culture;
(3) 24 hours after the start of culture;
(4) 48 hours after the start of culture;
(5) 72 hours after the start of culture.

## EGF: epidermal cell growth factor, immobilized on the plate or dissolved from the sheet
Nerve cell strain PC12
  effect on proliferation and differentiation (nuclei and cell morphology), immobilized state versus dissolved state: affected the PC12 cells differently

## IGF-I: insulin-like growth factor used as biologically active substance
[1]; areas containing IGF-I
  muscle differentiation (optical microscope): muscle differentiation
[2]
  muscle differentiation (CK relative activity): accelerated
[3]; areas containing IGF-I
  differentiation into muscle cells (microscope observation): accelerated depending on the concentrations

## b-FGF: Basic fibroblast cell growth factor, a cell growth factor used as biologically active substance
[4]; FGF-2 added (1) immediately after the start of culture
  ALP staining (index for bone differentiation by BMP-2): stained portions were scarcely observed
[4]; FGF-2 added (2) 12 hours after the start of culture
  ALP staining (index for bone differentiation by BMP-2): stained portions were scarcely observed
[4]; FGF-2 added (3) 24 hours after the start of culture
  ALP staining (index for bone differentiation by BMP-2): portions stained with ALP were confirmed
[4]; FGF-2 added (4) 48 hours after the start of culture
  ALP staining (index for bone differentiation by BMP-2): portions stained with ALP were confirmed
[4]; FGF-2 added (5) 72 hours after the start of culture
  ALP staining (index for bone differentiation by BMP-2): portions stained with ALP were confirmed
[4]; adding FGF-2 within 24 hours after the start of the culture
  bone differentiation from muscle cells into bone cells: significantly suppressed
[1]; areas containing immobilized b-FGF
  cell proliferation (optical microscope): cell proliferation
[3]; areas containing b-FGF
  cell proliferation (microscope observation): accelerated depending on the concentrations
